In assay [1] the target is T1, Heat shock factor protein 1 (Mus musculus, UniProt P38532).
T1 sequence (P38532 whole entry): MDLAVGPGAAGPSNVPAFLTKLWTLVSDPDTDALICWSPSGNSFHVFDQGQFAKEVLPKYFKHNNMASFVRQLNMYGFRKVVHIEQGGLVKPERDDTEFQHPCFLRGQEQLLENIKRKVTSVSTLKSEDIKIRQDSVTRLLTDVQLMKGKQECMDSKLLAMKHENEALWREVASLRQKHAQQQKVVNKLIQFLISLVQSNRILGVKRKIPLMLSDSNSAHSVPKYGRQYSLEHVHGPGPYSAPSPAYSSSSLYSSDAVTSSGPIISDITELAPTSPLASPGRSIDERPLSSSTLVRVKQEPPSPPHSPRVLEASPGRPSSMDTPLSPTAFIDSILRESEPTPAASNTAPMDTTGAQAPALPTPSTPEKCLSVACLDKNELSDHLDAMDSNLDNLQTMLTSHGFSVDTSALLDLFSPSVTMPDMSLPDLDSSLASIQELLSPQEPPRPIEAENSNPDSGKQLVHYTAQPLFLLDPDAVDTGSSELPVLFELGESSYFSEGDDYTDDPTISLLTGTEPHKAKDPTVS
The assay is described as follows: enhancement of HSF1-driven luciferase signal – cell-based, NIH3T3, luminescence, dose retest, confirmation (AID 435004).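 Note: stress induced by proteasome inhibitor MG132 added 30 min after compound; luciferase reporter driven by HSF1 response element in NIH3T3 cells; actives raise luminescence as potentiators of the MG132 stress response.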 In kind it is functional.

For another assay, the target named is T2, Cytochrome P450 1A2 (Homo sapiens, UniProt P05177).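 Note: PubChem cytochrome P450 panel assay, CYP1A2 panel member.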
T2 sequence (P05177 whole entry): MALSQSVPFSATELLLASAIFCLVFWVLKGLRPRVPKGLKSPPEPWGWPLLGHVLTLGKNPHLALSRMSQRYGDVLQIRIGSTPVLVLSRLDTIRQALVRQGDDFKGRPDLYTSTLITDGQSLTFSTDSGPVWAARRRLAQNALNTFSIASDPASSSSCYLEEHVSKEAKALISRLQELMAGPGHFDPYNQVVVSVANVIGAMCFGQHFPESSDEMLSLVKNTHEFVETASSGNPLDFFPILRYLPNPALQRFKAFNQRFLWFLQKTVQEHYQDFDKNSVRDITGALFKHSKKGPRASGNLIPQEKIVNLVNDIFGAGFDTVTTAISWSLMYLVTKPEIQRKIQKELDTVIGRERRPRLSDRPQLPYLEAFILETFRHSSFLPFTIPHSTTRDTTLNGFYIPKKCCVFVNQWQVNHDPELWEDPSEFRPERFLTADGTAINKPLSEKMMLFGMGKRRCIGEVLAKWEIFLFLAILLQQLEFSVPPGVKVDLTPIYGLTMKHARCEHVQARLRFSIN

For the next assay, the target named is Cytochrome P450 2C19 (Homo sapiens, UniProt P33261). The assay is described as follows: Cytochrome panel assay with activity outcomes. Panel member name: p450-cyp2c19 Compounds with AC50 equal or less than 10 uM are considered active. Type of assay: functional. The conditions noted are these: read-out: AC50.
Sequence of Cytochrome P450 2C19 (P33261 whole entry): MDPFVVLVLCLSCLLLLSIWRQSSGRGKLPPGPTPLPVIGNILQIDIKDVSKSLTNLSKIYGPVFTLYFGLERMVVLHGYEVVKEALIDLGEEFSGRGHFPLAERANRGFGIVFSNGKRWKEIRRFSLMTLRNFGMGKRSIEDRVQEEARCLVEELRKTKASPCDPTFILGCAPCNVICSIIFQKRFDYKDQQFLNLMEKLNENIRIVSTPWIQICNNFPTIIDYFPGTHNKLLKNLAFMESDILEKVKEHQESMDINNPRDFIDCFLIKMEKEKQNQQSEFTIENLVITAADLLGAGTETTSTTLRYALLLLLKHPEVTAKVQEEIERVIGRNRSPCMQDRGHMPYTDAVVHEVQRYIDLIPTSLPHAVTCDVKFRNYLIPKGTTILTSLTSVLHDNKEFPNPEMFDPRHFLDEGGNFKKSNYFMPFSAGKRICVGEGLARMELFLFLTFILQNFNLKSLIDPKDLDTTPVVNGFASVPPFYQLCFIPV
The target of the next assay is Cytochrome P450 2C9 (Homo sapiens, UniProt P11712).
Sequence of Cytochrome P450 2C9 (P11712 whole entry): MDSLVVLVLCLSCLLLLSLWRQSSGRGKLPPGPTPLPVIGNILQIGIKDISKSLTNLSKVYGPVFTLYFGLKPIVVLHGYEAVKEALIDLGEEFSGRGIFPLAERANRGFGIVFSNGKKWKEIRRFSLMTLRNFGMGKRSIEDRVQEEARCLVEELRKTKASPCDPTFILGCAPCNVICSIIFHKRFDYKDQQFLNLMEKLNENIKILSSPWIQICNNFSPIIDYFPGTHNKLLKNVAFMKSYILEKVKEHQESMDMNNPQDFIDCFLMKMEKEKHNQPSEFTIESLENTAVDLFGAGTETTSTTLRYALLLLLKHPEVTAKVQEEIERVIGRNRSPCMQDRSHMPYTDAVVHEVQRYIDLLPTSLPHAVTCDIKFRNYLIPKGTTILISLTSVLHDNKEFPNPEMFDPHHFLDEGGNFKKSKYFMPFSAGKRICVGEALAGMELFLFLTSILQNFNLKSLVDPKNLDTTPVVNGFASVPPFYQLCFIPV
Assay [2] in a line: viability of uninfected HEp-2 cells – cell-based, HTS, cytotoxicity control for RSV inhibitor project, dose response (AID 2410). The conditions noted are these: human respiratory syncytial virus. In kind it is functional.

Where “and” joins values, the source holds several entries; their conditions need not be identical. Equal entries are not always repeated. Calls of active or inactive are those of the source.

As usually defined, the EC50 is the concentration at which the effect is half-maximal. Broadly, the AC50 is the midpoint of the concentration-response curve, whichever way the signal moves. A word on the CC50: it is the concentration that lowers cell viability or growth by half.

Regarding `Cc1nc(SCCOc2ccc(F)cc2)c2ccccc2n1`, the EC50 in assay [1] is 38.7 µM (active). In the case of `CCOC(=O)COc1cc(OCC(=O)OCC)c2c(=O)cc(-c3ccccc3)oc2c1`, at Cytochrome P450 1A2, the AC50 is 15.8 µM (inconclusive). For `COC(=O)CSC(C(=O)Nc1ccc(C)c(C)c1)c1ccccc1` (stereo not given), the AC50 on Cytochrome P450 2C19 is 0.398 µM (inconclusive); on Cytochrome P450 1A2, 8.91 µM (inconclusive).

`COc1ccc(NC(=O)N2CC[C@@]3(CCCN(C(=O)c4ccc(OC)cc4)C3)C2)cc1`: the AC50 at Cytochrome P450 2C9 was 12.6 µM (inconclusive); on Cytochrome P450 1A2, 25.1 µM (inconclusive). On to `COc1cccc(CNC(=O)Cn2nc(C)c([N+](=O)[O-])c2C)c1`, for which the EC50 in assay [1] is > 260 µM (inactive). In the case of `CC(=O)CSc1ncnc2sc3c(c12)CCC3`, the CC50 in assay [2] is 32.7 µM (active).

For the molecule `Cn1c(CNC(=O)Nc2ccccc2)nnc1SCc1ccccc1`, the AC50 at Cytochrome P450 1A2 was 25.1 µM (inconclusive).

In the case of `O=C(Nc1cc2c(oc1=O)CCCC2=O)c1ccc(Cl)cc1`, the AC50 on Cytochrome P450 1A2 is 14.1 µM (inconclusive).

`O=C(COC(=O)C1CCN(S(=O)(=O)c2cccc3cccnc23)CC1)c1ccc([N+](=O)[O-])cc1`: in assay [1], the EC50 is > 260 µM (inactive). On the same count and under the same terms, in the case of `C=C(C)Cn1c(SCC(=O)O)nnc1-c1ccc(OC)cc1` it was > 260 µM (inactive).

In the case of `CCN=C(S)NNC(=O)c1csc2c1CCCC2`, the CC50 in assay [2] is 17.9 µM (active).

`CC(C)Oc1cc(-n2c(=S)[nH]c3ccccc3c2=O)c(Cl)cc1Cl`: the AC50 at Cytochrome P450 1A2 is 12.6 µM (inconclusive).

As to `C/C=C1\COC(C(=O)NCc2ccccc2)(C(F)(F)F)C=C1C=C(C)C` (stereo not given), in assay [1], the EC50 is > 260 µM (inactive).

`CC(C)(C)c1ccc(C(=O)Nc2ccc(S(N)(=O)=O)cc2)cc1`: the CC50 in assay [2] was 20.1 µM (active). The same measure, in the same setting: next, `COc1ccc(/C=C(\C#N)C(=O)OCC(=O)Nc2ccc(-c3nc4ccc(C)cc4s3)cc2)cc1`: 18.6 µM (active).

Consider `OC[C@@H](O)C1OC2N=C(S)OC2C1O` (stereo not given in full), for which the EC50 in assay [1] is > 260 µM (inactive). As to `Cc1ccc([N+](=O)[O-])cc1NC(=O)CN(C)CCOc1ccccc1`, the CC50 in assay [2] is 24.3 µM (active). On the same count and under the same terms, next, `O=[N+]([O-])c1ccc(NC(S)=NC(=NCS(=O)(=O)c2ccccc2)c2ccccc2)cc1`: 11.1 µM (active). On to `COC(=O)C(NC(=O)c1ccc(Cl)cc1)(Nc1nc(C)cs1)C(F)(F)F` (stereo not given), for which the AC50 at Cytochrome P450 1A2 is 28.2 µM (inconclusive). `Cc1ccc(CS(=O)(=O)CCC(=O)NCc2cccs2)cc1`: the concentration at half-maximal activity (AC50) is 5.01 µM (inconclusive) on Cytochrome P450 2C9 and 15.8 µM (inconclusive) on Cytochrome P450 1A2. As for `O=C1C2CC=CCC2C(=O)N1Cc1nnc(-c2ccc(Cl)cc2)o1` (stereo not given), the EC50 in assay [1] was 39.1 µM (active). As for `CCOC(=O)c1c(C)[nH]c(C)c1S(=O)(=O)N1CCN(c2ccc(F)cc2)CC1`, in assay [1], the EC50 was > 260 µM (inactive).

Turning to `Clc1ccc(OCCn2c(-c3ccco3)nc3ccccc32)cc1`, in assay [1], the EC50 was 12 µM (active). On the same count and under the same terms, next, `Cc1ccc(NC2=NC(N)=NC3(CCCC3)N2)c(C)c1`: > 260 µM (inactive). For `N=C(N)NC(=O)c1nc(Cl)c(N)nc1N` [AMILORIDE], the AC50 on Cytochrome P450 1A2 was 39.8 µM (inconclusive) and 12.6 µM (inconclusive). For `Cc1cc(C)cc(OCC(=O)O/N=C(\N)Cc2ccc([N+](=O)[O-])cc2)c1`, the EC50 in assay [1] is > 260 µM (inactive). Consider `CC(C)NC(=O)c1onc(CSc2cccc3ccccc23)c1C(=O)O`, for which, in assay [2], the CC50 was 12.6 µM (active).

Take `Cc1ccc(C2CC(C(F)F)n3ncc(C(=O)Nc4c(C)nn(Cc5c(F)cccc5Cl)c4C)c3N2)cc1` (stereo not given): in assay [2], the CC50 was 19.9 µM (active). On to `CCOC(=O)/C(=N/Nc1ccc(Cl)cc1)Sc1nnnn1-c1ccc(C)cc1`, for which the EC50 in assay [1] was > 260 µM (inactive). Turning to `CSCCC(NS(=O)(=O)c1cccc(C(F)(F)F)c1)C(=O)N(C)CCOc1ccc(Cl)cc1` (stereo not given), the EC50 in assay [1] was > 260 µM (inactive). As to `COc1ccc2nc(-c3ccccc3)cc(OC)c2c1`, the CC50 in assay [2] was > 50 µM (active). With `COc1ccc(NS(=O)(=O)c2cccc(C(=O)N(C)Cc3ccc(SC)cc3)c2)cc1`, the EC50 in assay [1] was > 260 µM (inactive).
